The target of one assay is T1, CFTR-mediated short-circuit current in F508del/MF-HBE cells (Homo sapiens, UniProt P13569, DEL508-508).
T1 construct: human bronchial epithelial (HBE) cells derived from CF subjects; endogenous in cells; host or cells: primary human bronchial epithelial cells from CF subjects (F508del/MF-HBE)
T1 sequence (P13569 with tags, fused parts or gaps DEL508-508): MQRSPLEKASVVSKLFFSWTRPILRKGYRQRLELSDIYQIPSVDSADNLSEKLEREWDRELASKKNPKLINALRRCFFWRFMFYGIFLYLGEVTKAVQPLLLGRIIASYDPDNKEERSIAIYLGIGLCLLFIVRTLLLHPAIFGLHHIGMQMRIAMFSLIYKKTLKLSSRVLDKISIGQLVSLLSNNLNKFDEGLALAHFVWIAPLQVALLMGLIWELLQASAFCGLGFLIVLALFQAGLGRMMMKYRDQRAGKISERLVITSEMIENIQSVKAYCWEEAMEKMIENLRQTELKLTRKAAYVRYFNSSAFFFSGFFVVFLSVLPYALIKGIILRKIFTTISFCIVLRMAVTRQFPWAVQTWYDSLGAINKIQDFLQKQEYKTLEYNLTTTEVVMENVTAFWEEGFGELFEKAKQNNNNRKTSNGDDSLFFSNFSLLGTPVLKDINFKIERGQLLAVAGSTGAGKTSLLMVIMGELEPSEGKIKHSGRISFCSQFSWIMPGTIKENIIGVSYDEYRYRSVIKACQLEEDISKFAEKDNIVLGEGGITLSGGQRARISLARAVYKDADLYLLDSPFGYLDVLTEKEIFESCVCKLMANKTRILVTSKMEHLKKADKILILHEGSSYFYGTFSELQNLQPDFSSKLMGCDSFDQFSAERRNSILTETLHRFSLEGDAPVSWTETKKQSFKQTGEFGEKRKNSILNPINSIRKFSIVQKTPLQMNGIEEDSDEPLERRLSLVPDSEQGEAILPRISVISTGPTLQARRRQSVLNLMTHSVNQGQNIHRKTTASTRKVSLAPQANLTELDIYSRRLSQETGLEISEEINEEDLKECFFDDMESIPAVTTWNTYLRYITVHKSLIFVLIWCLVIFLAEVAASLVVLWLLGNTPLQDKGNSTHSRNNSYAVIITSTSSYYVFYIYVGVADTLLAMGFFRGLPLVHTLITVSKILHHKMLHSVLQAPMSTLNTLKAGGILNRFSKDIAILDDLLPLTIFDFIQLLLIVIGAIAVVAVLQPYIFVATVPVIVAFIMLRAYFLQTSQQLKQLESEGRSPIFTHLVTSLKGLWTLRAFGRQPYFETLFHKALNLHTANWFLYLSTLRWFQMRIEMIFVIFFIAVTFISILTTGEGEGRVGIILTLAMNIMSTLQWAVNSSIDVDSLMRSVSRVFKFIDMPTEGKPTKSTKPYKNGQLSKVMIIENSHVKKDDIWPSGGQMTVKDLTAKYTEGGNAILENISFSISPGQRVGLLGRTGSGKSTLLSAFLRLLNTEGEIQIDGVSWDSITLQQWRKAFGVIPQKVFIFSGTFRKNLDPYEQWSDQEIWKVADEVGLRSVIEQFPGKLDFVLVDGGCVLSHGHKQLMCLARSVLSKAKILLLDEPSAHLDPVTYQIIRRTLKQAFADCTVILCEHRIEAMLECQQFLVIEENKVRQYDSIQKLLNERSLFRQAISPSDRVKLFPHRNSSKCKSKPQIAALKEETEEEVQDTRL
In words: HBE assay: Ussing chamber assay of CFTR-mediated short-circuit currents. Format: cell-based. Particulars: F508del/MF-HBE, 18-24 hours with 1 μM Ivacaftor, 20% human serum; compared to known Vertex corrector with Tezacaftor and Ivacaftor; read-out: HBE Max Activity (%). The protocol:
(§1) 1. Ussing Chamber Assay of CFTR-Mediated Short-Circuit Currents
(§2) Ussing chamber experiments were performed using human bronchial epithelial (HBE) cells derived from CF subjects heterozygous for F508del and a minimal function CFTR mutation (F508del/MF-HBE) and cultured as previously described (Neuberger T, Burton B, Clark H, Van Goor F Methods Mol Biol 2011:741:39-54). After four days the apical media was removed, and the cells were grown at an air liquid interface for >14 days prior to use.
(§3) To isolate the CFTR-mediated short-circuit (ISC) current, F508del/MF-HBE grown on Costar® Snapwell™ cell culture inserts were mounted in an Ussing chamber and the transepithelial ISC was measured under voltage-clamp recording conditions (Vhold=0 mV) at 37° C. The basolateral solution contained (in mM) 145 NaCl, 0.83 K2HPO4, 3.3 KH2PO4, 1.2 MgCl2, 1.2 CaCl2), 10 Glucose, 10 HEPES (pH adjusted to 7.4 with NaOH) and the apical solution contained (in mM) 145 NaGluconate, 1.2 MgCl2, 1.2 CaCl2, 10 glucose, 10 HEPES (pH adjusted to 7.4 with NaOH) and 30 μM amiloride to block the epithelial sodium channel. Forskolin (20 μM) was added to the apical surface to activate CFTR, followed by apical addition of a CFTR inhibitor cocktail consisting of BPO, GlyH-101, and CFTR inhibitor 172 (each at 20 μM final assay concentration) to specifically isolate CFTR currents. The CFTR-mediated ISC (μA/cm^2) for each condition was determined from the peak forskolin response to the steady-state current following inhibition.
(§4) 2. Identification of Corrector Compounds
(§5) The activity of the CFTR corrector compounds on the CFTR-mediated ISC was determined in Ussing chamber studies as described above. The F508del/MF-HBE cell cultures were either incubated with the corrector compounds at a range of concentrations in combination with 1 μM Ivacaftor or were incubated with the corrector compounds at a single fixed concentration of 10 μM in combination with 1 μM Ivacaftor for 18-24 hours at 37° C. and in the presence of 20% human serum. The concentration of corrector compounds with 1 μM Ivacaftor during the 18-24 hours incubations was kept constant throughout the Ussing chamber measurement of the CFTR-mediated ISC to ensure compounds were present throughout the entire experiment.
as §3, with “CaCl2,” for “CaCl2),”
For the molecule `Cc1cccc(C)c1-c1cc2nc(n1)NS(=O)(=O)c1cccc(c1)C(=O)N1[C@H](CCC[C@@H]1c1ccccn1)CO2` [Compound 328], the Emax was in the range of 30 to 60%.

Still in this assay, the particulars now being: F508del/MF-HBE, 18-24 hours with 1 μM Ivacaftor, 20% human serum; read-out: HBE EC50.
In the case of `Cc1cccc(C)c1-c1cc2nc(n1)NS(=O)(=O)c1cccc(c1)C(=O)N1[C@H](CCC[C@@H]1c1ccccn1)CO2` [Compound 328], the EC50 is 1000 to 3000 nM.

Staying with this assay, now noted: at 10 μM.
For `Cc1cccc(C)c1-c1cc2nc(n1)NS(=O)(=O)c1cccc(c1)C(=O)N1[C@@H](c3ncc(OC(C)C)cn3)CC[C@@H](CC(C)C)[C@H]1CO2` (single isomer, unassigned) [Compound 392, 13-(2,6-dimethylphenyl)-7-isobutyl-4-(5-isopropoxypyrimidin-2-yl)-17,17-dioxo-10-oxa-17λ^6-thia-3,14,16,23-tetrazatetracyclo[16.3.1.111,15.03,8]tricosa-1(21),11,13,15(23),18(22),19-hexaen-2-one], the “HBE Activity at 10 μM (%)” value is reported as “++ (++ is 30-60%)”.
Same read-out and setting: in the case of `Cc1cccc(C)c1-c1cc2nc(n1)NS(=O)(=O)c1cccc(c1)C(=O)N1[C@@H](c3cccc(N(C)C4CC5(CC5)C4)n3)CC[C@@H](C(C)C)[C@H]1CO2` (single isomer, unassigned) [Compound 390, 13-(2,6-dimethylphenyl)-7-isopropyl-4-[6-[methyl(spiro[2.3]hexan-5-yl)amino]-2-pyridyl]-17,17-dioxo-10-oxa-17λ^6-thia-3,14,16,23-tetrazatetracyclo[16.3.1.111,15.03,8]tricosa-1(21),11,13,15(23),18(22),19-hexaen-2-one] it was “+++ (+++ is >60%)”.
On the same count and under the same terms, in the case of `Cc1cccc(C)c1-c1cc2nc(n1)NS(=O)(=O)c1cccc(c1)C(=O)N1C(c3ncc(OC(C)C)cn3)CCC(CC(C)C)C1CO2` (stereo not drawn) [Compound 414] it was “+++ (+++ is >60%)”.

The next assay concerns the target T1, CFTR-mediated short-circuit current in F508del/MF-HBE cells. In words: HBE2 assay: Ussing chamber assay of CFTR-mediated short-circuit currents. It counts as cell-based.
Settings: not given
The procedure:
as §1, §2
as §3, with “CaCl2,” for “CaCl2),”
as §4
as §5, with “44 nM (6R,12R)-17-amino-12-methyl-6,15-bis(trifluoromethyl)-13,19-dioxa-3,4,18-triazatricyclo[12.3.1.12,5]nonadeca-1(18),2,4,14,16-pentaen-6-ol” for “1 μM Ivacaftor”, “1 and 3” for “10”, “[…]” for “20%”
With `Cc1cccc(C)c1-c1cc2nc(n1)NS(=O)(=O)c1cccc(c1)C(=O)N1[C@@H](c3ncc(OC(C)C)cn3)CCC(C)(C)[C@H]1CO2` (single isomer, unassigned) [Compound 386, 13-(2,6-dimethylphenyl)-4-(5-isopropoxypyrimidin-2-yl)-7,7-dimethyl-17,17-dioxo-10-oxa-17λ^6-thia-3,14,16,23-tetrazatetracyclo[16.3.1.111,15.03,8]tricosa-1(21),11,13,15(23),18(22),19-hexaen-2-one], the “HBE2 Activity at 3 μM (%)” value is “+ (+ is <30+)”.
Same read-out and setting: the value for `Cc1cccc(C)c1-c1cc2nc(n1)NS(=O)(=O)c1cccc(c1)C(=O)N1[C@@H](c3cncc(N(C)C4CCC4)n3)CCC[C@@H](CC(C)C)[C@H]1CO2` (single isomer, unassigned) [Compound 401, 4-[6-[cyclobutyl(methyl)amino]pyrazin-2-yl]-14-(2,6-dimethylphenyl)-8-isobutyl-18,18-dioxo-11-oxa-18λ^6-thia-3,15,17,24-tetrazatetracyclo[17.3.1.112,16.03,9]tetracosa-1(22),12,14,16(24),19(23),20-hexaen-2-one] was “++ (++ is 30-60%)”.
For the molecule `Cc1cccc(C)c1-c1cc2nc(n1)NS(=O)(=O)c1cccc(c1)C(=O)N1C[C@@H](CCCC[C@@H]1c1ncc(OCc3ccccc3)cn1)O2` [Compound 416], the activation at 3 µM was in the range of 30 to 60%.
Regarding `Cc1cccc(C)c1-c1cc2nc(n1)NS(=O)(=O)c1cccc(c1)C(=O)N1[C@@H](c3ncc(OC(C)C)cn3)CCC[C@@H](O2)[C@H]1CC(C)C` [Compound 421], the “HBE2 Activity at 3 μM (%)” value is on record as “+++ (+++ is >60%)”.
As to `Cc1cccc(C)c1-c1cc2nc(n1)NS(=O)(=O)c1cccc(c1)C(=O)N1[C@@H](c3ncc(OC(C)C)cn3)CCC[C@H]1[C@@H](CC(C)C)O2` [Compound 424], the activation at 3 µM is 30 to 60%.
Same read-out and setting: the value for `Cc1cccc(C)c1-c1cc2nc(n1)NS(=O)(=O)c1cccc(c1)C(=O)N1[C@H](CCC[C@@H]1C(=O)NCc1ccccc1)CO2` [Compound 415] was 30 to 60%.
As for `Cc1cccc(C)c1-c1cc2nc(n1)NS(=O)(=O)c1cccc(c1)C(=O)N1[C@@H](c3ncc(OC(C)C)cn3)CCC[C@@H](CC(C)C)[C@H]1CO2` (single isomer, unassigned) [Compound 396, 14-(2,6-Dimethylphenyl)-8-isobutyl-4-(5-isopropoxypyrimidin-2-yl)-18,18-dioxo-11-oxa-18λ^6-thia-3,15,17,24-tetrazatetracyclo[17.3.1.112,16.03,9]tetracosa-1(22),12,14,16(24),19(23),20-hexaen-2-one], the “HBE2 Activity at 3 μM (%)” value is “+ (+ is <30+)”.
For `Cc1cccc(C)c1-c1cc2nc(n1)NS(=O)(=O)c1cccc(c1)C(=O)N1[C@@H](c3ncc(OC(C)C)cn3)CCC[C@@H](O2)[C@H]1CC(C)C` (single isomer, unassigned) [Compound 404, 12-(2,6-dimethylphenyl)-21-isobutyl-20-(5-isopropoxypyrimidin-2-yl)-8,8-dioxo-15-oxa-8λ^6-thia-1,9,11,22-tetrazatetracyclo[14.4.1.13,7.110,14]tricosa-3,5,7(23),10(22),11,13-hexaen-2-one], the “HBE2 Activity at 3 μM (%)” value was “++ (++ is 30-60%)”.
Consider `Cc1cccc(C)c1-c1cc2nc(n1)NS(=O)(=O)c1cccc(c1)C(=O)N1[C@@H](CCCC[C@@H]1c1ncc(OCc3ccccc3)cn1)CO2` [Compound 420], for which the “HBE2 Activity at 3 μM (%)” value is given as “+ (+ is <30+)”.
Same read-out and setting: the value for `Cc1cccc(C)c1-c1cc2nc(n1)NS(=O)(=O)c1cccc(c1)C(=O)N1[C@@H](c3ncc(OC(C)C)cn3)CCC[C@@H](CC(C)C)[C@H]1CO2` (single isomer, unassigned) [Compound 395, 14-(2,6-dimethylphenyl)-8-isobutyl-4-(5-isopropoxypyrimidin-2-yl)-18,18-dioxo-11-oxa-18λ^6-thia-3,15,17,24-tetrazatetracyclo[17.3.1.112,16.03,9]tetracosa-1(22),12,14,16(24),19(23),20-hexaen-2-one] was “++ (++ is 30-60%)”; that for `Cc1cccc(C)c1-c1cc2nc(n1)NS(=O)(=O)c1cccc(c1)C(=O)N1[C@@H](c3cncc(N(C)C4CCC4)n3)CCC[C@@H](CC(C)C)[C@H]1CO2` (single isomer, unassigned) [Compound 400, 4-[6-[Cyclobutyl(methyl)amino]pyrazin-2-yl]-14-(2,6-dimethylphenyl)-8-isobutyl-18,18-dioxo-11-oxa-18λ^6-thia-3,15,17,24-tetrazatetracyclo[17.3.1.112,16.03,9]tetracosa-1(22),12,14,16(24),19(23),20-hexaen-2-one] was “+++ (+++ is >60%)”.
In the case of `Cc1cccc(C)c1-c1cc2nc(n1)NS(=O)(=O)c1cccc(c1)C(=O)N1[C@@H](c3ncc(OC(C)C)cn3)CC[C@@H](O2)[C@H]1CC(C)C` [Compound 418], the activation at 3 µM is less than 30%.
On to `Cc1cccc(C)c1-c1cc2nc(n1)NS(=O)(=O)c1cccc(c1)C(=O)N1[C@@H](c3ncc(OC(C)C)cn3)CCC[C@@H](O2)[C@H]1CC(C)C` [Compound 422], for which the “HBE2 Activity at 3 μM (%)” value was “+ (+ is <30+)”.

By EC50 is commonly meant the midpoint of the concentration-response curve.

These data come from patent US20240018161A1, “MODULATORS OF CYSTIC FIBROSIS TRANSMEMBRANE CONDUCTANCE REGULATOR” (VERTEX PHARMACEUTICALS INCORPORATED, priority 2020, published 2024).
